Results as given in patent publication US6683181B2, “Pyrroloquinolones as antiviral agents” (Pharmacia and Upjohn Comapny, priority 2000, dated 2004).

Key:
[1] = biological target: T1, CMV Polymerase (Human cytomegalovirus, UniProt P08546); assay: HCMV polymerase scintillation proximity assay (modified version); type: biochemical; conditions: modified SPA assay; compounds diluted in 100% DMSO; 4.5 mM DTT
T1 construct: made in house; host or cells: recombinant baculovirus-infected SF-9 cells
Procedure: (§1) The HCMV polymerase assay is performed using a scintillation proximity assay (SPA) as described in several references, such as N. D. Cook, et al., Pharmaceutical Manufacturing International, pages 49-53 (1992); K. Takeuchi, Laboratory Practice, September issue (1992); U.S. Pat. No. 4,568,649 (1986); which are incorporated by reference herein. Reactions are performed in 96-well plates. The assay is conducted in 100 μl volume with 5.4 mM HEPES (pH 7.5), 11.7 mM KCl, 4.5 mM MgCl2, 0.36 mg/ml BSA, and 90 nM ^3H-dTTP. Assays are run with and without CHAPS, (3-[(3-Cholamidopropyl)-dimethylammonio]-1-propane-sulfonate) at a final concentration of 2 mM. HCMV polymerase is diluted in enzyme dilution buffer containing 50% glycerol, 250 mM NaCl, 10 mM HEPES (pH 7.5), 100 μg/ml BSA, and 0.01% sodium azide. The HCMV polymerase, which is expressed in recombinant baculovirus-infected SF-9 cells and purified according to literature procedures, is added at 10% (or 10 μl) of the final reaction volume, i.e., 100 μl. Compounds are diluted in 50% DMSO and 10 μl are added to each well. Control wells contain an equivalent concentration of DMSO. Unless noted otherwise, reactions are initiated via the addition of 6 nM biotinylated poly(dA)-oligo(dT) template/primer to reaction mixtures containing the enzyme, substrate, and compounds of interest. Plates are incubated in a 25° C. or 37° C. H2O bath and terminated via the addition of 40 μl/reaction of 0.5 M EDTA (pH 8) per well. Reactions are terminated within the time-frame during which substrate incorporation is linear and varied depending upon the enzyme and conditions used, i.e., 30 min. for HCMV polymerase. Ten μl of streptavidin-SPA beads (20 mg/ml in PBS/10% glycerol) are added following termination of the reaction. Plates are incubated 10 min. at 37° C., then equilibrated to room temperature, and counted on a Packard Topcount. Linear regressions are performed and IC50's are calculated using computer software.
A modified version of the above HCMV polymerase assay is performed as described above, but with the following changes: Compounds are diluted in 100% DMSO until final dilution into assay buffer. In the previous assay, compounds are diluted in 50% DMSO. 4.5 mM dithiotherotol (DTT) is added to the polymerase buffer.

[2] = biological target: VZV Polymerase (Varicella-zoster virus, UniProt P09252); assay: VZV polymerase assay; type: biochemical
Sequence of VZV Polymerase (P09252 whole entry): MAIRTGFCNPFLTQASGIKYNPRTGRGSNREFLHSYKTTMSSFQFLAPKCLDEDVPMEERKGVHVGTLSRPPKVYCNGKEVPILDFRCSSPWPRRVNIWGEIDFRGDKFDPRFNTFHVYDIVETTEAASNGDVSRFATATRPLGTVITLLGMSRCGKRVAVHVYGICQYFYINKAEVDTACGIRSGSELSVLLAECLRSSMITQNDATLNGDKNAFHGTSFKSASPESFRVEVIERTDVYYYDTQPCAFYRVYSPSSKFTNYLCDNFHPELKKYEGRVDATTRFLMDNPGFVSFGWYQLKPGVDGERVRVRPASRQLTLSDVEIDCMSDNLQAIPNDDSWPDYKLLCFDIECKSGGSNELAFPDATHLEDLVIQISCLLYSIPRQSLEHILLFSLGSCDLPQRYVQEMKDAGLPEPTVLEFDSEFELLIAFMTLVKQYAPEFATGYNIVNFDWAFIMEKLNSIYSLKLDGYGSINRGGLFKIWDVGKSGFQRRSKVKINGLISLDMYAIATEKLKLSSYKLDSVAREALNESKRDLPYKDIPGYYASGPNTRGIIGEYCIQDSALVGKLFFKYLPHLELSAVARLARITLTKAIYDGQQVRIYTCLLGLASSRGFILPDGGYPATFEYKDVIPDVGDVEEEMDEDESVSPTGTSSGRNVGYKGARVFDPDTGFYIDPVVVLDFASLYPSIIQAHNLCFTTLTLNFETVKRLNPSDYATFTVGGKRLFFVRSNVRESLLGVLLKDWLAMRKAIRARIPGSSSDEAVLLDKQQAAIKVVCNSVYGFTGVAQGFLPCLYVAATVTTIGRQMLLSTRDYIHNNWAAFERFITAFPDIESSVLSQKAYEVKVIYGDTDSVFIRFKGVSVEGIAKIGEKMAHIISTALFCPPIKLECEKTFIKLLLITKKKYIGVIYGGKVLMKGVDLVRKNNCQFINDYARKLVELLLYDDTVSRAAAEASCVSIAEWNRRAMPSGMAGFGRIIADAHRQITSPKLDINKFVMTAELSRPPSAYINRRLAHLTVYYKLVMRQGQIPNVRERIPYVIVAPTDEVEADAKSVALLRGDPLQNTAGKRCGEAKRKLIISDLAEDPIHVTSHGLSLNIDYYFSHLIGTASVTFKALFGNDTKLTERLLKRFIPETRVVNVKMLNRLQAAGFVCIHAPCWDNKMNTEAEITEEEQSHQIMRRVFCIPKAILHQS
Procedure: [Worded in the source for another target; used here, by the source, with some conditions changed.] as §1, with “software. […]” for “software.”

[3] = biological target: HSV Polymerase (Human herpesvirus 1, UniProt P04293); assay: HSV polymerase assay; type: biochemical
Sequence of HSV Polymerase (P04293 whole entry): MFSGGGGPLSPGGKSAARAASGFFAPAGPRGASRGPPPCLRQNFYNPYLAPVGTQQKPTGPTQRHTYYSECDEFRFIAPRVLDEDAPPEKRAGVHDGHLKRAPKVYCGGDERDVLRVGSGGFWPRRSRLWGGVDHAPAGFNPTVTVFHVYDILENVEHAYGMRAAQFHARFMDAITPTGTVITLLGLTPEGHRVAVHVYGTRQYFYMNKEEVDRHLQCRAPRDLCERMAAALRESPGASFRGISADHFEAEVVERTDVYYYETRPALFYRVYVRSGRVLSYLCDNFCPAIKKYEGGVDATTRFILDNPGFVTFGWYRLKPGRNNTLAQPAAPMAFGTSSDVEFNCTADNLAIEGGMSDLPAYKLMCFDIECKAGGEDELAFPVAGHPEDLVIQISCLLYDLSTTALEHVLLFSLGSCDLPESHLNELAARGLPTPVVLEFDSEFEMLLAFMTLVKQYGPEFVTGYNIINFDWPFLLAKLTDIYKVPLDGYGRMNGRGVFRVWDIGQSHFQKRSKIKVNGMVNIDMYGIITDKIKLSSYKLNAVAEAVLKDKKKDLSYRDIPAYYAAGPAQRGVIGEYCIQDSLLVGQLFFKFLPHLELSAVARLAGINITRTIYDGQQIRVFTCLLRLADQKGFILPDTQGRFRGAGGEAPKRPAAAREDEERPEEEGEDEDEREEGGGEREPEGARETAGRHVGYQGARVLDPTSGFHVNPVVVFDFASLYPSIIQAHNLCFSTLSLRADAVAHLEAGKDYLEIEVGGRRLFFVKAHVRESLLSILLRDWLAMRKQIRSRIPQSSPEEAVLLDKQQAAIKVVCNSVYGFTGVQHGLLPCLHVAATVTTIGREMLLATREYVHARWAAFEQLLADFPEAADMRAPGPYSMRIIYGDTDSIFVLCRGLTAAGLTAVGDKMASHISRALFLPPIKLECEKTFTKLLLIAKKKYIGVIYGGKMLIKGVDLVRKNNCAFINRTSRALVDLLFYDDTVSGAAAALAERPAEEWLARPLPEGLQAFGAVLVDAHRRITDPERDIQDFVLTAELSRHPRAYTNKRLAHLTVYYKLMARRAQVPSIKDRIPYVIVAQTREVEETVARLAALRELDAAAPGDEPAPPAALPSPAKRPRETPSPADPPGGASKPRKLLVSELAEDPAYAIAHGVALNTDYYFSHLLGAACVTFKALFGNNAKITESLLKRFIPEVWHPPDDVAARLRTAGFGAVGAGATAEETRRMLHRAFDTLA
Procedure: [Worded in the source for another target; used here, by the source, with some conditions changed.] as §1, with “software. […]” for “software.”

T1 sequence (P08546 whole entry): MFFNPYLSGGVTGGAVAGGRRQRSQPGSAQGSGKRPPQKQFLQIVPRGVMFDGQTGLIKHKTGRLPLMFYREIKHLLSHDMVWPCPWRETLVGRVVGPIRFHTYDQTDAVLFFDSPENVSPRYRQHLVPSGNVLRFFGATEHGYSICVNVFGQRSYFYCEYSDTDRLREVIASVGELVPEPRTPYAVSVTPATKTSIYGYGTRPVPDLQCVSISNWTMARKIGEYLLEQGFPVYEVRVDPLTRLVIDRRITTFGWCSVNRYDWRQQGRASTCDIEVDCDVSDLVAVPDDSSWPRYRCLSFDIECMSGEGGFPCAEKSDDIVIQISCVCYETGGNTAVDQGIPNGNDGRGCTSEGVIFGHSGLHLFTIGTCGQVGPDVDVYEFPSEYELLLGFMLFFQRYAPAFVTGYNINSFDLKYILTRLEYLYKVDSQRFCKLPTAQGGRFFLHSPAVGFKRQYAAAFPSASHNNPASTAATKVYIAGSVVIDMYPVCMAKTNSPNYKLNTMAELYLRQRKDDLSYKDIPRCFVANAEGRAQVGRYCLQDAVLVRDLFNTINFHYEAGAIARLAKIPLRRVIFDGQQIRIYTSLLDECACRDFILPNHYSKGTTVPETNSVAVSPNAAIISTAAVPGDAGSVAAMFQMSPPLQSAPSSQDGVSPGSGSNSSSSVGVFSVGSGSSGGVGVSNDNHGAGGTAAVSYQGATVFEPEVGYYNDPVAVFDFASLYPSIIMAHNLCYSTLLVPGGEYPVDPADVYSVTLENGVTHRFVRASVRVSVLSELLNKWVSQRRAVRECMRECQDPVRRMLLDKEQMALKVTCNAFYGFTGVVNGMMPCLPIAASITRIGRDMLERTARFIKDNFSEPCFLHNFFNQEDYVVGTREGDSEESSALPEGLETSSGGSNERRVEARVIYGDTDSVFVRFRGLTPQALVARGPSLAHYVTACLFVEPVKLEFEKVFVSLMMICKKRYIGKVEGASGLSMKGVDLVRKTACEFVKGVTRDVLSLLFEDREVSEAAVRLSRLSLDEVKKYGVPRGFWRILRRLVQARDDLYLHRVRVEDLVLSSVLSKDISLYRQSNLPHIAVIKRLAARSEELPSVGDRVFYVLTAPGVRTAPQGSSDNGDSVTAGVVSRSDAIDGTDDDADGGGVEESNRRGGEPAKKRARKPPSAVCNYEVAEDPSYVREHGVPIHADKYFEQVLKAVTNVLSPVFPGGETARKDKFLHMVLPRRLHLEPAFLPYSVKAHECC

| SMILES | melting point | IC50 [1] | IC50 [2] | IC50 [3] |
| --- | --- | --- | --- | --- |
| O=C(NCc1ccc(Cl)cc1)c1cn2c(CSc3ccccc3)cc3cc(CN4CCOCC4)cc(c1=O)c32 [Example 19, N-(4-Chlorobenzyl)-8-(4-morpholinylmethyl)-6-oxo-2-[(phenylsulfanyl)methyl]-6H-pyrrolo[3,2,1-ij]quinoline-5-carboxamide] | 173 to 175 °C | 680 nM | – | – |
| CNCc1cc2cc(CN3CCOCC3)cc3c(=O)c(C(=O)NCc4ccc(Cl)cc4)cn1c23 [Example 20, N-(4-Chlorobenzyl)-2-[(methylamino)methyl]-8-(4-morpholinylmethyl)-6-oxo-6H-pyrrolo[3,2,1-ij]quinoline-5-carboxamide] | – | 490 nM | – | – |
| O=C(NCc1ccc(Cl)cc1)c1cn2c(CCO)cc3cc(CC4CCOCC4)cc(c1=O)c32 [Example 23, N-(4-Chlorobenzyl)-2-(2-hydroxyethyl)-6-oxo-8-(tetrahydro-2H-pyran-4-ylmethyl)-6H-pyrrolo[3,2,1-ij]quinoline-5-carboxamide] | 204 to 206 °C | 130 nM | 100 nM | 140 nM |
| CN1CCN(CCc2cc3cc(CN4CCOCC4)cc4c(=O)c(C(=O)NCc5ccc(Cl)cc5)cn2c34)CC1 [Example 7, N-(4-Chlorobenzyl)-2-[2-(4-methylpiperazin-1-yl)ethyl]-8-(morpholin-4-ylmethyl)-6-oxo-6H-pyrrolo[3,2,1-ij]quinoline-5-carboxamide] | – | 1760 nM | – | – |
| CN(C)Cc1cc2cc(CN3CCOCC3)cc3c(=O)c(C(=O)NCc4ccc(Cl)cc4)cn1c23 [Example 21, N-(4-Chlorobenzyl)-2-[(dimethylamino)methyl]-8-(4-morpholinylmethyl)-6-oxo-6H-pyrrolo[3,2,1-ij]quinoline-5-carboxamide] | – | 620 nM | – | – |
| C[C@@H](O)c1cc2cc(CN3CCOCC3)cc3c(=O)c(C(=O)NCc4ccc(Cl)cc4)cn1c23 [Example 16, N-(4-Chlorobenzyl)-2-[(IR)-1-hydroxyethyl]-8-(4-morpholinylmethyl)-6-oxo-6H-pyrrolo[3,2,1-ij]quinoline-5-carboxamide] | 155 to 159 °C | 260 nM | – | – |
| O=C(NCc1ccc(Cl)cc1)c1cn2c(CCCN3CCOCC3)cc3cc(CN4CCOCC4)cc(c1=O)c32 [Example 11, N-(4-Chlorobenzyl)-8-(morpholin-4-ylmethyl)-2-(3-morpholin-4-ylpropyl)-6-oxo-6H-pyrrolo[3,2,1-ij]quinoline-5-carboxamide] | – | 3570 nM | – | – |
| CCC1CCCCN1CCc1cc2cc(CN3CCOCC3)cc3c(=O)c(C(=O)NCc4ccc(Cl)cc4)cn1c23 (stereo not shown) [Example 8, N-(4-Chlorobenzyl)-2-[2-(2-ethylpiperidin-1-yl)ethyl]-8-(morpholin-4-ylmethyl)-6-oxo-6H-pyrrolo[3,2,1-ij]quinoline-5-carboxamide] | – | 1920 nM | – | – |
| CCSCc1cc2cc(CN3CCOCC3)cc3c(=O)c(C(=O)NCc4ccc(Cl)cc4)cn1c23 [Example 18, N-(4-Chlorobenzyl)-2-[(ethylsulfanyl)methyl]-8-(4-morpholinylmethyl)-6-oxo-6H-pyrrolo[3,2,1-ij]quinoline-5-carboxamide] | 177 to 178 °C | 580 nM | – | – |
| O=C(NCc1ccc(Cl)cc1)c1cn2c(CO)cc3cc(CN4CCOCC4)cc(c1=O)c32 [Example 3, N-(4-Chlorobenzyl)-2-(hydroxymethyl)-8-(4-morpholinylmethyl)-6-oxo-6H-pyrrolo[3,2,1-ij]quinoline-5-carboxamide] | 210 to 212 °C | 530 nM | 250 nM | 510 nM |
| O=C(NCc1ccc(Cl)cc1)c1cn2c(CN3CCS(=O)(=O)CC3)c(I)c3cc(CN4CCOCC4)cc(c1=O)c32 [Example 13, N-(4-Chlorobenzyl)-2-[(1,1-dioxido-4-thiomorpholinyl)methyl]-1-iodo-8-(4-morpholinylmethyl)-6-oxo-6H-pyrrolo[3,2,1-ij]quinoline-5-carboxamide] | 244 to 246 °C | 840 nM | – | – |
| CCN(CC)CCc1cc2cc(CN3CCOCC3)cc3c(=O)c(C(=O)NCc4ccc(Cl)cc4)cn1c23 [Example 6, N-(4-Chlorobenzyl)-2-[2-(diethylamino)ethyl]-8-(4-morpholinylmethyl)-6-oxo-6H-pyrrolo[3,2,1-ij]quinoline-5-carboxamide] | – | 2430 nM | – | – |
| CN1CCN(CCCc2cc3cc(CN4CCOCC4)cc4c(=O)c(C(=O)NCc5ccc(Cl)cc5)cn2c34)CC1 [Example 9, N-(4-Chlorobenzyl)-2-[3-(4-methylpiperazin-1-yl)propyl]-8-(morpholin-4-ylmethyl)-6-oxo-6H-pyrrolo[3,2,1-ij]quinoline-5-carboxamide] | – | 3440 nM | – | – |
| O=C(NCc1ccc(Cl)cc1)c1cn2c(CN3CCS(=O)(=O)CC3)cc3cc(CN4CCOCC4)cc(c1=O)c32 [Example 12, N-(4-Chlorobenzyl)-2-[(1,1-dioxido-4-thiomorpholinyl)methyl]-8-(4-morpholinylmethyl)-6-oxo-6H-pyrrolo[3,2,1-ij]quinoline-5-carboxamide] | 236 to 239 °C | 360 nM | – | – |
| O=C(NCc1ccc(Cl)cc1)c1cn2c(CO)cc3cccc(c1=O)c32 [Example 1, N-(4-Chlorobenzyl)-2-(hydroxymethyl)-6-oxo-6H-pyrrolo[3,2,1-ij]quinoline-5-carboxamide] | 211 to 213 °C | 1200 nM | – | – |
| O=C(NCc1ccc(Cl)cc1)c1cn2c(CCO)cc3cccc(c1=O)c32 [Example 22, N-(4-Chlorobenzyl)-2-(2-hydroxyethyl)-6-oxo-6H-pyrrolo[3,2,1-ij]quinoline-5-carboxamide] | 190 to 192 °C | 1200 nM | – | – |
| O=C(NCc1ccc(Cl)cc1)c1cn2c(CO)cc3cc(CC4CCOCC4)cc(c1=O)c32 [Example 2, N-(4-Chlorobenzyl)-2-(hydroxymethyl)-6-oxo-8-(tetrahydro-2H-pyran-4-ylmethyl)-6H-pyrrolo[3,2,1-ij]quinoline-5-carboxamide] | 196 to 198 °C | 210 nM | 160 nM | 200 nM |
| O=C(NCc1ccc(Cl)cc1)c1cn2c(CCCO)cc3cc(CN4CCOCC4)cc(c1=O)c32 [Example 14, N-(4-Chlorobenzyl)-2-(3-hydroxypropyl)-8-(4-morpholinylmethyl)-6-oxo-6H-pyrrolo[3,2,1-ij]quinoline-5-carboxamide] | 171 to 174 °C | 320 nM | – | – |
| NC(=O)NCc1cc2cc(CN3CCOCC3)cc3c(=O)c(C(=O)NCc4ccc(Cl)cc4)cn1c23 [Example 15, 2-{[(Aminocarbonyl)amino]methyl}-N-(4-chlorobenzyl)-8-(4-morpholinylmethyl)-6-oxo-6H-pyrrolo[3,2,1-ij]quinoline-5-carboxamide] | 250 to 252 °C | 410 nM | – | – |
| O=C(NCc1ccc(Cl)cc1)c1cn2c(CCN3CCCCC3)cc3cc(CN4CCOCC4)cc(c1=O)c32 [Example 10, N-(4-Chlorobenzyl)-8-(morpholin-4-ylmethyl)-6-oxo-2-(2-piperidin-1-ylethyl)-6H-pyrrolo[3,2,1-ij]quinoline-5-carboxamide] | – | 2300 nM | – | – |
| COCc1cc2cc(CN3CCOCC3)cc3c(=O)c(C(=O)NCc4ccc(Cl)cc4)cn1c23 [Example 17, N-(4-Chlorobenzyl)-2-(methoxymethyl)-8-(4-morpholinylmethyl)-6-oxo-6H-pyrrolo[3,2,1-ij]quinoline-5-carboxamide] | 157 to 159 °C | 540 nM | – | – |
